Data published in a melting point compilation (Tetko et al.; mined from patent text by program, amines drawn as free bases though some values may be those of a salt).
Non-standard residues stand in square brackets, D forms with d. Residues, ends and D or L forms follow the SMILES beside them. pGlu = O=C1CC[C@@H](C(=O)O)N1

| Structure (SMILES) | melting point [°C] |
| --- | --- |
| CCCCC(OC)c1c(C(C)C)nc(C(C)C)c(CO)c1-c1ccc(F)cc1 (stereo not given) | 121 to 123 |
| O=C(c1ccccc1)C(O)Cc1cccc(O)c1 (stereo not given) | 118 to 119 |
| CSCC(NCc1cc(Br)cc(Br)c1N)C(=O)O (stereo not given) | 240 |
| Cc1cccc(-c2nn3c(c2-c2ccc(F)cc2)CC[C@H]3CO)n1 | 142 to 144 |
| NC(=O)c1cc(OC(F)(F)F)ccc1O | 188 to 190 |
| COC(=O)[C@H](Cc1cc(I)c(OCCCBr)c(I)c1)NC(=O)OC(C)(C)C | 102 to 103 |
| COc1nc(C)c(N2CCCn3c2nc2c(Cl)ccc(C(O)(C4CC4)C4CC4)c23)c(C)n1 | 220 to 221 |
| CCOC(=O)C1(c2ccc(OCc3ccccc3)cc2)CC2=C(C1)C(=O)C(OC)=C(OC)C2=O | 94 to 97 |
| COc1ccc(C(=O)Nc2ccc3ccc(S(=O)CCN(C)C)nc3n2)cc1 (stereo not given) | 158 |
| O=C1CC(c2ccccc2)c2ccccc2CN1 (stereo not given) | 180 to 181 |
| CCCCCC1CCC(C2CCC(CC(O)CC)CC2)CC1 (stereo not given) | 131 |
| O=C(Nc1ccccc1)Nc1ncc(Oc2ccc(Cl)cc2)c(N2CCOCC2)n1 | 229 to 231 |
| CN(c1cccc2cc(C3=NCC(CN4CCOCC4)S3)[nH]c12)S(=O)(=O)c1cccnc1 (stereo not given) | 234 to 236 |
| N#Cc1cnn2c1N(C(=O)CN1CCN(C(=O)Nc3ccccc3)CC1)CC=C2c1cccc(C(F)(F)F)c1 | 184 to 187 |
| COc1ccc(C2=NN(CC=Cc3ccccc3)C(=O)C3CCCCC23)cc1OC (stereo not given) | 76 to 79 |
| CC(C)=CCOc1c(I)cc(C(C)O)nc1Cl (stereo not given) | 80 to 81 |
| COc1ccc(COC(=O)C(N)CCCCNC(=O)OC(C)(C)C)cc1 (stereo not given) | 118 to 120 |
| O=C(CNC(=O)c1nc2ccc(Oc3cccc(C(F)(F)F)c3)cc2cc1OCc1ccccc1)OCc1ccccc1 | 103 to 105 |
| Cc1cc(C(=O)Nc2cc(Oc3ccc4nc(NC(=O)C5CC5)cn4n3)ccc2F)n(C)n1 | 237 |
| Cc1c(F)c(N2CCC(n3cncn3)C2)c(F)c2c1c(=O)c(C(=O)O)cn2C1CC1 (stereo not given) | 207 to 210 |
| Cc1c2n(c3ccccc13)C(=O)C(Cc1cn(C)cn1)CC2 (stereo not given) | 99 to 100 |
| CCCC(=O)C1=C(O)CC(c2cccc3c2OCO3)CC1=O (stereo not given) | 81 to 82 |
| Cc1ccc2c(c1)CN(C)C(c1ccc(C(C)(C)C)cc1)C2 (stereo not given) | 106 to 108 |
| O=[N+]([O-])c1c(Br)nn(Cc2ccc(Cl)cc2)c1NCc1ccccc1 | 139 to 141 |
| O=C(c1ccc(F)cc1)C1CCN(CCCn2c(=O)[nH]c3ccccc32)CC1 | 164 |
| COc1cccc(C(=O)CC(=O)c2cc(NC(C)=O)ccc2O)c1 | 72 to 73 |
| Fc1ccc(C=Nc2c3c(nc4ccccc24)CCCC3)cc1 | 161 to 163 |
| COC(=O)c1ccc(C(=O)NC(C(=O)N2CCCC2C(=O)NC(C(C)C)C(O)C(F)(F)F)C(C)C)cc1 (mixture of isomers) | 64 to 67 |

| Structure (SMILES) | melting point [°C] |
| --- | --- |
| COc1ccc2c(c1)c1c(n2C(=O)c2ccccc2)CCC(C(=O)O)C1 (stereo not given) | 216 to 219 |
| CC(C)C[C@@H](C(=O)O)N1C(=O)NC(C(F)(F)F)(C(F)(F)F)C1=O | 154 to 156 |
| COc1cc(SC2SCC(O)C(O)C2O)cc(OC)c1OC (stereo not given) | 166 |
| Nc1ccc(Sc2c(NCC=Cc3ccccc3)cc(C(=O)O)cc2S(N)(=O)=O)cc1 | 228 to 232 |
| CCc1nn2ccc3oc(C)cc3c2c1CC#N | 156 to 157 |
| COC(=O)[C@H](Cc1ccc(NC(=O)c2c(Cl)cccc2Cl)cc1)NC(=S)C1(CCCCS(C)(=O)=O)CCCC1 | 200 to 202 |
| CCOP(=O)(Cc1ccc(NC(=O)CCc2cnoc2-c2ccc(Cl)cc2)cc1)OCC | 138 to 139 |
| c1ccc2nc(COc3cccc4[nH]ccc34)ccc2c1 | 143 to 144 |
| CN(C)C(=CC(=O)C(F)(F)F)NCc1ccc(Cl)nc1 | 85 |
| CN1Cc2c(C#CC(O)(C3CC3)C3CC3)ncn2-c2cccc(Cl)c2C1=O | 179 to 181 |
| OC(CC1CCN(CC2CC2)CC1)(c1ccccc1)c1ccc(F)cc1 (stereo not given) | 115 to 116 |
| O=C(O)c1ccccc1OCCN1CCC(c2cn(CCCC3OCCO3)c3ccccc23)CC1 | 147 to 149 |
| COC(=O)c1cc(-c2ccccc2)cc2c1C(C)(C)CCC2(C)C | 118 |
| O=S(=O)(c1ccccc1)N1CCCC1c1cccc(F)c1 (racemic) | 96 |
| C/C(=N\O)[C@H]1CC[C@H]2[C@@H]3CCC4=CC(=O)CC[C@]4(C)[C@H]3CC[C@]12C | 220 to 221 |
| O=C(OC1CCCC1)c1ncn2c1[C@@H]1CCN1C(=O)c1c(I)cccc1-2 | 184 to 185 |
| CC(Cn1ncnn1)n1nnc2cc3c(=O)n(Cc4cccnc4)nnc3cc2c1=O (stereo not given) | 200 |
| COc1ccc2c(c1)Cc1ccccc1C(=O)C2 | 105 to 106 |
| CCCCN=C(CS(C)=O)c1ccccc1O (stereo not given) | 128 to 129 |
| O=C(C=Cc1ccc(F)cc1)C(c1ccccc1)c1ccccc1 | 122 to 124 |
| COc1ccc2c(c1)c(C#N)cn2C | 100 to 104 |
| CC(C)(C)c1cc(CCc2ccccc2NC(=O)NC2CCN(Cc3ccc(F)c(F)c3)CC2)cc(C(C)(C)C)c1O | 155 to 156 |
| CC(=CN=Cc1ccccc1Cl)c1cccs1 | 102 |
| CC(Cc1ccc(O)cc1)NCC(O)c1cc2ccccc2o1 (stereo not given) | 135 to 138 |
| Cc1nnc(-c2cccc(-c3cnc4[nH]cc(C(=O)C5(C)CCCCC5)c4n3)c2)o1 | 234 to 236 |
| C[C@@H](NC(=O)C1CCC1)c1cccc(C(=O)c2ccccc2)c1 | 90 to 93 |
| COC(=O)c1cc(C(=O)O)nn1C | 175 |

Continued, values first:

| melting point [°C] | Structure (SMILES) |
| --- | --- |
| 165 to 168 | CCCc1c2nc(C(=O)OCC)cc(C)c2cc2c(=O)cc(C(=O)OCC)oc12 |
| 125 to 135 | COc1cc(C(=O)O)ccc1Cc1c(Cl)n(C)c2cc(Cl)c(CC(C)NC(=O)N(C)C)cc12 (stereo not given) |
| 111 to 113 | COc1ncnc2cc(Br)sc12 |
| 114 to 116 | CC(C)[C@@H]1C[C@@H]([C@H](CC2CCCCC2)NC(=O)OC(C)(C)C)OC1=O |
| 199 | CC1=NN(C)c2nc(C)c(CCN3CCN(c4n[nH]c5ccccc45)CC3)c(=O)n2C1 |
| 221 to 222 | Clc1cccc(-c2ccc3cnc(Nc4ccc(N5CCOCC5)nc4)nn23)c1 |
| 203 to 204 | S=c1[nH]c2c(n1-c1ccccn1)CCCC2 |
| 106 | O=C(O)CCCCCCCCCCCCCCCCCCCCCN1C(=O)C=CC1=O |
| > 300 | O=c1cc(O)c2c([nH]1)CCCC2 |
| 85 to 86 | CC(C)c1cccc(C(C)C)c1NC(=O)CSCCCCCCCCCBr |
| 195 to 197 | Brc1cccc(-c2ccnn2-c2ccc3c(c2)OCO3)c1 |
| 110 | CC(C)(O/N=C(\C(=O)Sc1nc2ccccc2s1)c1csc(N)n1)C(=O)OC(c1ccccc1)c1ccccc1 |
| 205 to 207 | CCNc1ncn(Cc2ccc(OC)c(OC3CCCC3)c2)c2nc(C(C)C)nc1-2 |
| 121 to 122 | COc1cc(OC)nc(-n2c(OC)nc3ccccc32)n1 |
| 103 to 104 | CC(C)(C)OC(=O)COc1ccc(C(=O)CN2CCN(c3ccncc3)CC2)cc1 |
| 311 to 312 | N#Cc1ccc(-c2ccc(-c3ccc(C#N)cn3)o2)nc1 |
| 162 to 165 | CC(C)Cn1c(=O)n(C)c(=O)c2c(SCCCC(N)=O)n(Cc3cccc4ccccc34)cc21 |
| 109 to 110 | N#CCCOc1cccc(OCCC#N)c1 |
| 163 to 165 | CCCc1c(OC2CCCOC2)ccc2c(O)cc(=O)oc12 (stereo not given) |
| 188 | CCNC(=O)c1ccc(F)c(NC(=O)c2cc(C(C)(C)C)nn2CC)c1 |
| 161 to 163 | NC(=S)C(c1ccccc1)c1cccnn1 (stereo not given) |
| 175 to 176 | COc1cc(OC)nc(Sc2[nH]nc(C)c2[N+](=O)[O-])n1 |
| 233 to 235 | Oc1ccc(-c2c3ccc(O)cc3cc3sc4ccccc4c23)cc1 |

| melting point [°C] | Structure (SMILES) |
| --- | --- |
| 108 to 112 | CCN(CC)CCN1CCN(Cc2ccc(O)cc2)C(c2ccccc2)C1 (stereo not given) |
| 114 to 116 | COC(=O)[C@H](CS)NC(=O)[C@@H]1CCC(=O)N1 ([pGlu]-Cys-OMe) |
| 171 to 173 | COc1ccc(-c2nc(CO)c[nH]2)cc1 |
| 104 to 106 | Cc1c(C)c(S(=O)(=O)C[N+](=O)[O-])c(C)c2c1OCCC2 |
| 60 to 61 | CCOC(=O)C1=CCCCC1S(=O)(=O)Nn1cccc1Cl (stereo not given) |
| 144 to 146 | CC(=O)OCC1=C(C(=O)OC(c2ccccc2)c2ccccc2)N2C(=O)C(NC(=O)Cc3csc(-c4c(O)cccc4O)n3)C2SC1 (stereo not given) |
| 230 | N=C(N)Nc1nc(C(=O)NCCCC(CC(=O)O)c2ccccc2)cs1 (racemic) |
| 161 to 162 | CC(C(=O)O)c1ccc2nc(-c3ccccc3)ccc2c1 (stereo not given) |
| 128 to 129 | CCOC(=O)CN1CCN(CCNc2ncc3ncnc(Nc4ccc(F)c(Cl)c4)c3n2)CC1 |
| 99 to 100 | COc1ccc(C2(C#Cc3ccccc3)CCC(=O)CC2)cc1OC1CCCC1 |
| 80 to 81 | CC(C)(C)c1nnc(Oc2ccc(N)cc2)o1 |
| 103 to 104 | COC(=O)c1cccc(-c2nc(COc3ccc(C=O)cc3)c(C)o2)c1 |
| 194 | CN1C(=O)c2cnc(-c3ccccc3)nc2N(C(=O)CN2CCN(Cc3ccccc3)CC2)c2ccccc21 |
| 277 to 280 | O=c1[nH]c(=O)c2cc3occoc3cc12 |
| 173 to 175 | OC(c1c(Br)ccc2c1OCO2)c1cccc2cnccc12 (stereo not given) |
| 178 to 180 | CCOc1cccc(C(C)CC(=O)Nc2sc3c(c2C#N)CCNC3)c1 (racemic) |
| 75 to 77 | CC(C)C[C@H](NC(=O)OC(C)(C)C)[C@@H]1CCC(=O)O1 |
| 136 to 138 | CCCc1nc2c(N)nc3ccccc3c2n1CCCC(=O)CC(C)C |
| 225 to 227 | Oc1ccc(-c2nc(Br)c[nH]2)cc1Cl |
| 99 to 105 | CCCCCCCCCCCCc1ccc2c(c1)C(=O)c1ccccc1C2=O |
| > 300 | N#Cc1cccc(-c2nc(-c3ccc(C(=O)O)cc3)cc3cccnc23)c1 |
| 128 to 130 | O=C1C(O)=C(C2CCCCC2)C(=O)c2ccccc21 |
